What was measured:
[1] = target: T1, 5 HT2C receptor (Homo sapiens, UniProt P28335); assay: affinity to the 5 HT2C receptor; assay type: binding
T1 sequence (P28335 33-458): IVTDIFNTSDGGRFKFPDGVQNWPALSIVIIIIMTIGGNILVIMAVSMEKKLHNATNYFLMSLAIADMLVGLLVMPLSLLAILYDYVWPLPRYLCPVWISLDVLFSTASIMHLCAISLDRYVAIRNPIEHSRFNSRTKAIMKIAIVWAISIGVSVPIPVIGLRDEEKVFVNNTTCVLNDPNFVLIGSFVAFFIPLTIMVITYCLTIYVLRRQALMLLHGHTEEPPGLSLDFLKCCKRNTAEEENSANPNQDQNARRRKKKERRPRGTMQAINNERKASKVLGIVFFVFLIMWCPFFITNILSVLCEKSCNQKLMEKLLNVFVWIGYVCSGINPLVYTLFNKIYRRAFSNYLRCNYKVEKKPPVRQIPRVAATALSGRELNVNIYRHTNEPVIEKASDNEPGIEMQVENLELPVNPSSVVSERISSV

[2] = target: 5-HT2A receptors (Rattus norvegicus, UniProt P14842); assay: in-vitro affinity to 5-HT2A receptors, displacement of [3H]ketanserine (Example A1); assay type: binding; conditions: read-out: HT2A IC50
5-HT2A receptors, sequence (P14842 whole entry): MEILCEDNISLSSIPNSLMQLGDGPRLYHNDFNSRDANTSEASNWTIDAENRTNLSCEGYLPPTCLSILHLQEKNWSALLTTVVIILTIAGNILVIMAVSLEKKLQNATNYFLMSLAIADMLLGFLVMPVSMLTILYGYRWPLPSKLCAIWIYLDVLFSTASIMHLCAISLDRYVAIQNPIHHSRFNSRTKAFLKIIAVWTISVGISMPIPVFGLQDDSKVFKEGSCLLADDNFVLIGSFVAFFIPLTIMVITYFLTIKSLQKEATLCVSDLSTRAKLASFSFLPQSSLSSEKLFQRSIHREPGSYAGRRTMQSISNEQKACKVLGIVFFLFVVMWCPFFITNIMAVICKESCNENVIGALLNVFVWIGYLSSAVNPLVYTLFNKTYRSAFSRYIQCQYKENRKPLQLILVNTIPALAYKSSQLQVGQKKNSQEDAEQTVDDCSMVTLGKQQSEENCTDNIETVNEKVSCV
From the text: The 5-HT2A receptors are exposed both to [^3H]ketanserine (a substance which is known for its affinity to the receptor) and also to the test compound. The decrease in the affinity of [^3H]ketanserine to the receptor is an indication of the affinity of the test substance to the 5-HT2A receptor.

| Structure (SMILES) | IC50 [1] [nM] | IC50 [2] [nM] |
| --- | --- | --- |
| Cn1cccc1CNCc1cnn(-c2ccc(-c3ccccc3)cc2)c1-c1ccccc1 [Example 925, (1-Biphenyl-4-yl-5-phenyl-1H-pyrazol-4-yl-methyl)-(1-methyl-1H-pyrrol-2-ylmethyl)amine] | 520 | 26 |
| NCCNCc1cnn(-c2ccc(-c3ccccc3)cc2)c1-c1ccccc1F [Example 894, N-[1-Biphenyl-4-yl-5-(2-fluorophenyl)-1H-pyrazol-4-ylmethyl]ethane-1,2-diamine] | 450 | 6.5 |
| Cc1ccc(-c2ccc(-n3ncc(CN4CCN(C)CC4)c3-c3ccccc3F)cc2)cc1 [Example 916, 1-[5-(2-Fluorophenyl)-1-(4′-methylbiphenyl-4-yl)-1H-pyrazol-4-ylmethyl]-4-methylpiperazine] | 960 | 22 |
| Fc1ccccc1-c1c(CN2CCCCC2)cnn1-c1ccc(-c2ccccc2)cc1 [Example 931, 1-[1-Biphenyl-4-yl-5-(2-fluorophenyl)-1H-pyrazol-4-ylmethyl]piperidine] | 1000 | 30 |
| CCN(CC)Cc1cnn(-c2ccc(-c3ccc(F)cc3)cc2)c1-c1ccccc1Cl [Example 951, [5-(2-Chlorophenyl)-1-(4′-fluoro-biphenyl-4-yl)-1H-pyrazol-4-ylmethyl]diethylamine] | 1000 | 53 |
| CN1CCN(Cc2cnn(-c3ccc(-c4ccc(Cl)cc4)cc3)c2-c2ccccc2F)CC1 [Example 920, 1-[1-(4′-Chlorobiphenyl-4-yl)-5-(2-fluoro-phenyl)-1H-pyrazol-4-ylmethyl]-4-methyl-piperazine] | 330 | 23 |
| Cn1ccnc1CNCc1cnn(-c2ccc(-c3ccccc3)cc2)c1-c1ccccc1 [Example 942, (1-Biphenyl-4-yl-5-phenyl-1H-pyrazol-4-yl-methyl)-(1-methyl-1H-imidazol-2-ylmethyl)-amine] | 1000 | 39 |
| O=C1NCN(c2ccccc2)C12CCN(Cc1cnn(-c3ccc(-c4ccccc4)cc3)c1-c1ccccc1F)CC2 [Example 1051, 8-[1-Biphenyl-4-yl-5-(2-fluorophenyl)-1H-pyrazol-4-ylmethyl]-1-phenyl-1,3,8-triaza-spiro[4.5]decan-4-one] | 1000 | 400 |
| OCc1cnn(-c2ccc(-c3ccc(F)cc3)cc2)c1-c1ccc(Cl)cc1 [Example 933, [5-(4-Chlorophenyl)-1-(4′-fluoro-biphenyl-4-yl)-1H-pyrazol-4-yl]methanol] | 1000 | 31 |
| CN1CCN(Cc2cnn(-c3ccc(C(F)(F)F)cn3)c2-c2ccccc2F)CC1 [Example 941, 1-[5-(2-Fluorophenyl)-1-(5-trifluoro-methylpyridin-2-yl)-1H-pyrazol-4-ylmethyl]-4-methyl-piperazine] | 1000 | 39 |
| CN1CCN(Cc2cnn(-c3ccc(-c4cc(F)ccc4F)cc3)c2-c2ccccc2F)CC1 [Example 953, 1-[1-(2′,5′-Difluorobiphenyl-4-yl)-5-(2-fluoro-phenyl)-1H-pyrazol-4-ylmethyl]-4-methyl-piperazine] | 470 | 55 |
| O=S1(=O)CCN(Cc2cnn(-c3ccc(-c4ccccc4)cc3)c2-c2ccccc2F)CC1 [Example 945, 4-[1-Biphenyl-4-yl-5-(2-fluorophenyl)-1H-pyrazol-4-ylmethyl]thiomorpholine 1,1-dioxide] | 1000 | 43 |

Reference: patent US20060264419A1 (priority 2003, published 2006)
